Patent US20140350081A1, “INSECT G-COUPLED RECEPTORS USEFUL AS TARGETS FOR INSECTICIDES AND COMPOUNDS AND REAGENTS IDENTIFIED USING THE SAME” (priority 2011, published 2014)
Like-named read-outs stand apart in the source and are kept apart here.

Key:
[1] = target: T1, Isdop2 (Ixodes scapularis, UniProt A0ACM8DGL0); assay: cell-based
[2] = system: Ae. aegypti larvae; assay: whole plant or invertebrate; assay type: in vivo; conditions: Aedes aegypti, 24 h, read-out: average larval mortality
Experimental: Single dose-point and dose response in vivo mosquito bioassays were used to assess the toxicity of selected AaDop2 receptor antagonists identified in the chemical screen. Larvae of Ae. aegypti (Liverpool strain) were reared under standard laboratory conditions on a 12 hr day/night cycle at 75% RH and 28° C., and bioassays were conducted at room temperature (22-24° C.). Larvae were transferred from standard rearing trays into six-well tissue culture plates (Corning, Inc. Corning, N.Y.) using a small plastic pipette. Ten L4-stage larvae were included per well, each containing five ml of de-ionized water and an assigned drug concentration. Controls were conducted similarly but lacked a drug treatment. Bioassays employed a double-blind experimental design, and larval mortality was scored 24 hr following administration of drugs. Single dose-point assays were conducted using 400 μM drug and included three biological replicates each consisting of 100 larvae.

[3] = target: T2, AaDOP2 (Aedes aegypti, UniProt H6D5H2); assay: LOPAC1280 antagonist screen in HEK-CRELuc-Aadop2 cells; assay type: cell-based; conditions: 10 μM compound, 300 nM dopamine, quadruplicate
T2 sequence (H6D5H2 entry or part of it): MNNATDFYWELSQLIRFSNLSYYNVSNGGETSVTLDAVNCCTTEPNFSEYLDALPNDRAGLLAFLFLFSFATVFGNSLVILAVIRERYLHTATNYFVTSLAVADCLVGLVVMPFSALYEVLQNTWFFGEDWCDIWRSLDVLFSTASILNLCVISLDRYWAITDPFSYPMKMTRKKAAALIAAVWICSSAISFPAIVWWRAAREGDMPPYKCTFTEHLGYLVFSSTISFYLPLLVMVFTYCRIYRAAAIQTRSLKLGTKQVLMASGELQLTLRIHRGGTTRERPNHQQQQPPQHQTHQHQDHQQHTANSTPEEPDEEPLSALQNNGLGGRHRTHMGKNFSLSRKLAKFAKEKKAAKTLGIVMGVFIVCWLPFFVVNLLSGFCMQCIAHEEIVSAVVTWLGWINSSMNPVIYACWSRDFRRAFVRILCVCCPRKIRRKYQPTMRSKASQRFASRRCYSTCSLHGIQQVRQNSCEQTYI

[4] = target: T2, AaDOP2; assay: cell-based
[5] = target: T3, Isdop1 (Ixodes scapularis, UniProt A0ACM8FJJ0); assay: cAMP accumulation confirmation assay, cells stably expressing Isdop1; assay type: cell-based
[6] = system: adult male Blatella germanica; assay: Cockroach contact assay (topical application); assay type: in vivo; conditions: 200 mM compound
From the text: (§1) A series of whole organism bioassays was developed to further evaluate the toxicity of chemistries to a range of agricultural, veterinary and public health pests and non-target insects (Tables 12 and 13). These assays are designed to rapidly explore the biological activity spectrum of chemistries as well as to facilitate initial investigations of the mode of action of insecticidal compounds. Briefly, assays were developed for the German cockroach (Blatella germanica, urban pest), termite (Reticulitermes flavipes; urban pest), lone star tick (Amblyomma americana; veterinary and public health pest), soybean aphid (Aphis glycines, agricultural pest) and honeybee (Apis mellifera; beneficial, non-target insect). The assays were designed to test the toxicity and speed of kill of multiple chemistries on contact. Each of these assays was performed as a single point dose experiment in triplicate using either topical application of compound to the ventral thorax ([…]; 50-80 μg effective dose depending on compound) as is the case for our cockroach and honeybee assays, or 10 second immersion in a solution of the compound diluted in water or DMSO:EtOH to a final concentration of 100 μM. The assays were conducted in 24-well plate format with mortality assessment following incubation at 22° C. as described above. Commercial insecticides were incorporated in these assays to provide a positive control and permit initial comparative analyses. Lead chemistries identified in our in vivo screen have been evaluated in the cockroach and termite assays.

[7] = target: T1, Isdop2; assay: cAMP accumulation confirmation assay, cells stably expressing Isdop2; assay type: cell-based
[8] = system: Ae. aegypti L3 larvae; assay: whole plant or invertebrate; conditions: Aedes aegypti
[9] = target: T2, AaDOP2; assay: HTRF cAMP accumulation concentration response assay (Cisbio Dynamic 2); assay type: cell-based; conditions: AaDOP2 expressing cells in the presence of dopamine; No Inhibition = <10% inhibition at 3 μM test compound; read-out: IC50 ± S.E.M. (nM), HTRF cAMP assay
[10] = system: Ae. aegypti L3 larvae; conditions: 400 μM, three independent experiments, listed as Cis-flupenthixol
[11] = system: adult Reticulitermes flavipes; assay: Termite immersion assay; assay type: in vivo; conditions: in vivo
From the text: A series of whole organism bioassays was developed to further evaluate the toxicity of chemistries to a range of agricultural, veterinary and public health pests and non-target insects (Tables 12 and 13). These assays are designed to rapidly explore the biological activity spectrum of chemistries as well as to facilitate initial investigations of the mode of action of insecticidal compounds. Briefly, assays were developed for the German cockroach (Blatella germanica, urban pest), termite (Reticulitermes flavipes; urban pest), lone star tick (Amblyomma americana; veterinary and public health pest), soybean aphid (Aphis glycines, agricultural pest) and honeybee (Apis mellifera; beneficial, non-target insect). The assays were designed to test the toxicity and speed of kill of multiple chemistries on contact. Each of these assays was performed as a single point dose experiment in triplicate using either topical application of compound to the ventral thorax (1 μl of a […] compound solution in 1:1 v:v DMSO:EtOH vehicle; 50-80 μg effective dose depending on compound) as is the case for our cockroach and honeybee assays, or 10 second immersion in a solution of the compound diluted in water or DMSO:[…] The assays were conducted in 24-well plate format with mortality assessment following incubation at 22° C. as described above. Commercial insecticides were incorporated in these assays to provide a positive control and permit initial comparative analyses. Lead chemistries identified in our in vivo screen have been evaluated in the cockroach and termite assays.

[12] = target: T2, AaDOP2; conditions: read-out: Affinity (Aedesdop2); values equal the Table 3 IC50 values
[13] = system: Ae. aegypti L3 larvae; assay: Ae. aegypti L3 concentration response and time course assays; assay type: in vivo, Aedes aegypti
Experimental: Briefly, chemistries were diluted to appropriate concentration in water and added to the wells of 24-well plates containing 5 L3 stage Ae. aegypti larvae to achieve a final concentration of 400, 200, 100, 50 and 25 μM in 1 ml sterile RO water. Chemistries were tested in quadruplicate at each concentration. […] Results reported here represent a minimum of three independent CRC experiments (i.e., n=3).

[14] = system: adult male Blatella germanica; assay: Cockroach assay of Table 16 (title contact assay, text feeding assay); assay type: in vivo; conditions: 200 mM compound
From the text: as §1

[15] = target: T1, Isdop2; assay: cAMP accumulation in HEK 293 cells transiently expressing Isdop2; assay type: cell-based
[16] = target: T2, AaDOP2; assay: AaDOP2 agonist screen against the LOPAC1280 library; assay type: cell-based; conditions: 10 μM compound; percent of response to 1 μM dihydrexidine
[17] = target: T1, Isdop2; assay: CRE-Luc reporter assay, HEK cells stably expressing Isdop2; assay type: cell-based
[18] = target: AaDOP1 (Aedes aegypti, UniProt H6D5H1); assay: CRELuc reporter dose-response in HEK293 cells stably expressing AaDOP1; assay type: cell-based
Sequence of AaDOP1 (H6D5H1 entry or part of it): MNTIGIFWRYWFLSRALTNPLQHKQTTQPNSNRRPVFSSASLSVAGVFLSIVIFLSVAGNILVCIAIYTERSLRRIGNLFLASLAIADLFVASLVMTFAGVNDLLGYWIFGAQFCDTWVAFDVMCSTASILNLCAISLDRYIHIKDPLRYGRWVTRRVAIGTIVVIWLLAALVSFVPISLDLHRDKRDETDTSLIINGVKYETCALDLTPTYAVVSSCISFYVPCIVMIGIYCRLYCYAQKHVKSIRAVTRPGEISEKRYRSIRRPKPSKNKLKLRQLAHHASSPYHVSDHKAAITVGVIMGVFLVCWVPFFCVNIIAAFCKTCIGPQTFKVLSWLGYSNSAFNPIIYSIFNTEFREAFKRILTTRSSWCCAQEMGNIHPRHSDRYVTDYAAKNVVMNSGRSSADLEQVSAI

[19] = target: T2, AaDOP2; assay: CRELuc reporter dose-response in HEK293 cells stably expressing AaDOP2; assay type: cell-based
[20] = target: T3, Isdop1; assay: cAMP accumulation in HEK 293 cells transiently expressing Isdop1; assay type: cell-based
[21] = target: T3, Isdop1; assay: CRE-Luc reporter assay, HEK cells stably expressing Isdop1; assay type: cell-based
[22] = read-out: % Inhibition (of response to dopamine), Isdop2 screen
[23] = 48 h, read-out: Toxicity to Aedes aegypti larvae (mortality) 48 hours, 400 μM, L3 larvae, three independent experiments
[24] = 72 h, read-out: Toxicity to Aedes aegypti larvae (mortality) 72 hours, 400 μM, L3 larvae, three independent experiments
[25] = 10 μM biogenic amine, 300 nM propranolol, cAMP accumulation, mean±standard error
[26] = 10 μM antagonist with 1 μM dopamine
[27] = 10 μM antagonist with 1 μM dopamine, relative to dopamine alone
[28] = 10 μM antagonist, 1 μM dopamine

T1 sequence (A0ACM8DGL0 entry or part of it): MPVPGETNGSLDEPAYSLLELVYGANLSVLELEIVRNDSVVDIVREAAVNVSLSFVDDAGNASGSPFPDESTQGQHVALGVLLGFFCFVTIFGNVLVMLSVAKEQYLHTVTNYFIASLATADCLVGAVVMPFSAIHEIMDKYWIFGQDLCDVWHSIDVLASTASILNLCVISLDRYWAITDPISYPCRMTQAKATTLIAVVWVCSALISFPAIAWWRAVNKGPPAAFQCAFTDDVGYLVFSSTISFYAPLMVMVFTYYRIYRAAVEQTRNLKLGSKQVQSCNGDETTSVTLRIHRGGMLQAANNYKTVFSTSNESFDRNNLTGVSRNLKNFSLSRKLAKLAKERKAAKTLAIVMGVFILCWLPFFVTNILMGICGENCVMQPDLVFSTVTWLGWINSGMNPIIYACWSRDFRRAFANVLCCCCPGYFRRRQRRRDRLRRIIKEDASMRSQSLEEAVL

Question: For `CN(C)CCC=C1c2ccccc2COc2ccccc21` (mixture of isomers) [Doxepin, ((Z)-3-(dibenzo[b,e]oxepin-11(6H)-ylidene)-N,N-dimethylpropan-1-amine)], which inhibition at 10 µM [1, 22] is on record?
Answer: 87%

Question: And the mortality at 400 µM [2]?
Answer: 57%

Question: `Oc1ccc(C=Cc2cc(O)cc(O)c2)cc1` [Resveratrol] was tested. Which “% of the SCH23390 effect” value [3] did it give?
Answer: 89%

Question: And the inhibition at 10 µM [1, 22]?
Answer: 100%

Question: What about the IC50 [4] of the same compound?
Answer: ≥ 10000 nM

Question: What does the source list for `OCCN1CCN(CC/C=C2/c3ccccc3Sc3ccc(C(F)(F)F)cc32)CC1` [cis-(Z)-Flupenthixol, ((Z)-2-(4-(3-(2-(trifluoromethyl)-9H-thioxanthen-9-ylidene)propyl)piperazin-1-yl)ethanol)]?
Answer: % of the SCH23390 effect [3]: 88%; IC50 [5]: 3700 nM; inhibition at 10 µM [1, 22]: 92%; % Mortality 24 hrs [6]: 10%; % Mortality 48 hrs [6]: 10%; % Mortality 72 hrs [6]: 10%; % Mortality 120 hrs [6]: 20%; % Mortality 240 hrs [6]: 20%; IC50 [7]: 870 nM; mortality at 400 µM ([8]; 0.5 h, read-out: percent mortality 0.5 hr, 400 uM, L3 larvae, value for this scoring time): 10%; mortality at 400 µM ([8]; 1 h, read-out: percent mortality 1 hr, 400 uM, L3 larvae, per scoring time): 30%; mortality at 400 µM ([8]; 2 h, read-out: percent mortality 2 hr, 400 uM, L3 larvae, per scoring time): 10%; mortality at 400 µM ([8]; 3 h, read-out: mortality within three hours, 400 μM, L3 larvae): > 70%; mortality at 400 µM ([8]; 3 h, read-out: percent mortality 3 hr, 400 uM, L3 larvae, per scoring time): 10%; mortality at 400 µM ([8]; 4 h, read-out: percent mortality 4 hr, 400 uM, L3 larvae, per scoring time): 0%; mortality at 400 µM ([8]; 24 h, read-out: percent mortality 24 hr, 400 uM, L3 larvae, per scoring time): 0%; mortality at 400 µM [8, 23]: 100%; mortality at 400 µM ([8]; 48 h, read-out: percent mortality 48 hr, 400 uM, L3 larvae, per scoring time): 0%; mortality at 400 µM ([8]; 72 h, read-out: Cumulative % Mortality (72 hrs), 400 uM, L3 larvae): 100%; mortality at 400 µM [8, 24]: 100%; mortality at 400 µM ([8]; 72 h, read-out: percent mortality 72 hr, 400 uM, L3 larvae, per scoring time): 0%; IC50 [9]: 0.35 ± 0.07 nM; Toxicity to Aedes aegypti larvae (mortality) 24 hours [10]: 100%; mortality of adult termites [11]: 70-100%; IC50 [12]: 20 nM; LT50 ([13]; 400 μM, L3 larval time course assay): 54 min; LC50 ([13]; Aedes aegypti): 88000 nM; % Mortality 24 hrs [14]: 3%; % Mortality 48 hrs [14]: 10%; % Mortality 72 hrs [14]: 10%; % Mortality 120 hrs [14]: 20%

Question: Which “Stimulatory response (fold-over-basal) Isdop2” value [15, 25] does the source give for `NC[C@H](O)c1ccc(O)c(O)c1` [Norepinephrine] here?
Answer: 2.43 ± 0.65 fold-over-basal

Question: And the “% of DHX” value [16]?
Answer: 86%

Question: And the EC50 [17]?
Answer: 4300 ± 1300 nM

Question: What about the EC50 ([18]; HEK293 cells stably expressing CRELuc reporter and AaDOP1) of the same compound?
Answer: 760 ± 180 nM

Question: And the “behaviour at the AaDOP2 receptor in follow up CRCs” value ([19]; HEK 293-CRELuc cells, FIG. 21A)?
Answer: partial agonists

Question: What about the “Stimulatory response (fold-over-basal) Isdop1” value [20, 25] of the same compound?
Answer: 1.46 ± 0.10 fold-over-basal

Question: What about the EC50 [21] of the same compound?
Answer: 2200 ± 300 nM

Question: Which results are given for `CN1CCc2cc(Cl)c(O)cc2C(c2ccccc2)C1` (centres unmarked) [SCH23390, 8-chloro-3-methyl-5-phenyl-1,2,4,5-tetrahydro-3-benzazepin-7-ol]?
Answer: % of the SCH23390 effect [3]: 83%; effect on dopamine-stimulated cAMP, Isdop2 [15, 26]: antagonistic effects; IC50 [5]: 57 nM; inhibition at 10 µM [1, 22]: 77%; inhibition at 10 µM ([1]; read-out: average inhibitory effect of antagonist control across all sixteen plates): 86 ± 6%; IC50 [7]: 120 nM; mortality at 400 µM ([8]; 24 h, read-out: Toxicity to Aedes aegypti larvae (mortality) 24 hours, 400 μM, L3 larvae, three independent experiments): 3%; mortality at 400 µM [8, 23]: 23%; mortality at 400 µM [8, 24]: 47%; IC50 [9]: 1300 nM; inhibition of luciferase activity Isdop2 [17, 27]: 69%; inhibition of dopamine-mediated stimulation of AaDOP1 [18, 28]: robustly inhibited; inhibition of dopamine-mediated stimulation of AaDOP2 [19, 28]: robustly inhibited; effect on dopamine-stimulated cAMP, Isdop1 [20, 26]: significant reduction in levels of intracellular cAMP; inhibition of luciferase activity Isdop1 [21, 27]: 74%; effect on constitutive activity of Isdop1 ([21]; antagonist alone, CRE-Luc): inhibition of the constitutive activity of Isdop1 was observed
